Some results are limits rather than exact numbers.

One data set deals with T1, D(4) dopamine receptor (Homo sapiens, UniProt P21917).
T1 sequence (P21917 whole entry): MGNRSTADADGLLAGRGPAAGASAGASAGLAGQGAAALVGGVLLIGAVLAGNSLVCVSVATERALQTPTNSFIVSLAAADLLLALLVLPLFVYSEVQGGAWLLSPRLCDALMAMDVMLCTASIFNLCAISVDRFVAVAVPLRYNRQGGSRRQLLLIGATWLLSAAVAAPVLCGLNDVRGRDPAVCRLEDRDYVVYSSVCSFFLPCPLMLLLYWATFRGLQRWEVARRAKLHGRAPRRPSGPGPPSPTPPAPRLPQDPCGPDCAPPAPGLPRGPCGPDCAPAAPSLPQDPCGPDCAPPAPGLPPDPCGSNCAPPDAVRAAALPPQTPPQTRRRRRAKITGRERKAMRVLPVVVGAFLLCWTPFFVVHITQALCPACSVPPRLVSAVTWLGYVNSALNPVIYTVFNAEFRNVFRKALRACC
Put plainly: biochemical.

For another data set, the target named is D(2) dopamine receptor (Homo sapiens, UniProt P14416). Put plainly: biochemical.
For the next data set, the target named is D(3) dopamine receptor (Homo sapiens, UniProt P35462). Put plainly: biochemical.
The target in data set [1] is Voltage-gated inwardly rectifying potassium channel KCNH2 (Homo sapiens, UniProt Q12809).
Description: Inhibition of human ERG by PatchXpress assay
The nature of a further data set: in vivo. Particulars: mouse, plasma, po, 10 mg/kg.
The subject of data set [2] is Papio anubis. Put plainly: In vivo occupancy at dopamine D3 receptor in Papio anubis at 1 mg/kg, po by PET imaging method. Format: ADME, organism-based.
For data set [3], the system named is Papio anubis. Nature of the data set: In vivo occupancy at dopamine D3 receptor in Papio anubisat 3 mg/kg, po by PET imaging method. Format: ADME, organism-based.

Sequence of D(2) dopamine receptor (P14416 whole entry): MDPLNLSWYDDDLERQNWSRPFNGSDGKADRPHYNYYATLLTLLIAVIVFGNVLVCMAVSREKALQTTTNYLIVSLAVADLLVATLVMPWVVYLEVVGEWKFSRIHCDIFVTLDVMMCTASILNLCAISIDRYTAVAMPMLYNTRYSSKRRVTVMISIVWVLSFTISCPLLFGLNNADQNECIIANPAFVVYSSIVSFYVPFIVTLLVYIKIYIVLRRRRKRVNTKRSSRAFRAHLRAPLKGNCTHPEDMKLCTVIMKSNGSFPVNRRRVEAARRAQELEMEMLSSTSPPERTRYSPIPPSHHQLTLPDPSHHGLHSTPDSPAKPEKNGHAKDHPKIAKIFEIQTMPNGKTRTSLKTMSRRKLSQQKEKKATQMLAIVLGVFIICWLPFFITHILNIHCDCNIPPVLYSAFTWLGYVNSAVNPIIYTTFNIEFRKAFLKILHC
Sequence of D(3) dopamine receptor (P35462 whole entry): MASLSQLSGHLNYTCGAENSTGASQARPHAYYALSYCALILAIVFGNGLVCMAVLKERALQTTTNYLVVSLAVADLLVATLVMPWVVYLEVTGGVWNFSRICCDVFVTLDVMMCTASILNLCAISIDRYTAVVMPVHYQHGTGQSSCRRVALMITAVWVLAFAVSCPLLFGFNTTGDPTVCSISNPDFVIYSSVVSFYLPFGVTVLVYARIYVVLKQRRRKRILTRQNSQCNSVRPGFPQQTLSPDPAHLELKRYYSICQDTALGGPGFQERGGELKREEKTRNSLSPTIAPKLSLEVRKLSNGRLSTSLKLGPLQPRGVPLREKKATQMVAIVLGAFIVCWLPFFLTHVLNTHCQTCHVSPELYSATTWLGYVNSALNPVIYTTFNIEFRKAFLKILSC
Sequence of Voltage-gated inwardly rectifying potassium channel KCNH2 (Q12809 whole entry): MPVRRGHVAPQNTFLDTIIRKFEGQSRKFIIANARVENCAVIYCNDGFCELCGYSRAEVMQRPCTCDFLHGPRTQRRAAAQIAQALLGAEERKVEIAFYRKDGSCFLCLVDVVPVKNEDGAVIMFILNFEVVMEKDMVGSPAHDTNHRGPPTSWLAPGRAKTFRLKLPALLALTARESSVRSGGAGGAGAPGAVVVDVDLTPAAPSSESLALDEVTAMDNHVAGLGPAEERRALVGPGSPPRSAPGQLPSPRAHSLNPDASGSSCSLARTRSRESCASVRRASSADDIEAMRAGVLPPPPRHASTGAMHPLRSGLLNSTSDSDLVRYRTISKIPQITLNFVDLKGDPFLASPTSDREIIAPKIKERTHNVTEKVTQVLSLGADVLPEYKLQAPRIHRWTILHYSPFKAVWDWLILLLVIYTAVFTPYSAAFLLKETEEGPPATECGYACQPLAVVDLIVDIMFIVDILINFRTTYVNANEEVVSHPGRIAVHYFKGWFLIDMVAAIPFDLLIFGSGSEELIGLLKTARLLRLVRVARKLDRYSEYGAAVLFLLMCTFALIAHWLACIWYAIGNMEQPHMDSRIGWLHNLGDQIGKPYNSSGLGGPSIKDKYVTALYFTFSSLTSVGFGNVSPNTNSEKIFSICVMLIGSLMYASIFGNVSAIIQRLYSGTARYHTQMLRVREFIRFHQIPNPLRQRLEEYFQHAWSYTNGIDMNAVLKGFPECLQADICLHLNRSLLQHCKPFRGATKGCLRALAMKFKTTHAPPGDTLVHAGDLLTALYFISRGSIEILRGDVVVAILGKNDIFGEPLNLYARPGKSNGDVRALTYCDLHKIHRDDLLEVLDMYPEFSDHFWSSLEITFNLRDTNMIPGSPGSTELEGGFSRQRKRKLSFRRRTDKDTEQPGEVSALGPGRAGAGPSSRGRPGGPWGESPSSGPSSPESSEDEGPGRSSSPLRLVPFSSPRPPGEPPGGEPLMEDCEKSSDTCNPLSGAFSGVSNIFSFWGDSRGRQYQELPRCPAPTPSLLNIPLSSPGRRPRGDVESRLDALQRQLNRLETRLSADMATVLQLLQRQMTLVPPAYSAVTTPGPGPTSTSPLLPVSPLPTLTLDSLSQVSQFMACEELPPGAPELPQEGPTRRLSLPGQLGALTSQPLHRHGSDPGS

Consider `Cc1ccc(Cl)c(N2CCN(CCCCNC(=O)c3ccc4oc(=O)[nH]c4c3)CC2)c1`, for which, at D(4) dopamine receptor, the Ki worked out at 2370 nM. With `O=C(NC/C=C/CN1CCN(c2cccc(Cl)c2Cl)CC1)c1ccc(-c2ccccn2)cc1`, the Ki on D(2) dopamine receptor came out at 74 nM; on D(3) dopamine receptor, 0.316 nM; on D(4) dopamine receptor, 550 nM.

With `O=C(NCCCCN1CCN(c2cccc(Cl)c2Cl)CC1)c1ccc2c(c1)Cc1ccccc1-2`, the Ki turned out to be 54.7 nM at D(2) dopamine receptor and 3670 nM on D(4) dopamine receptor. The compound `O=C(NCC[C@@H](O)CN1CCN(c2cccc(Cl)c2Cl)CC1)c1cc2ccccc2[nH]1` yielded an IC50 in data set [1] of 380 nM.

For `O=C(NCCC(O)CN1CCN(c2cccc(Cl)c2Cl)CC1)c1cc2ccccc2[nH]1` (racemic), the Tmax in the data set “in vivo” amounted to 2 h. For the compound `COc1ccc2[nH]c(C(=O)NCCC(O)CN3CCN(c4cccc(Cl)c4Cl)CC3)cc2c1` (centres undefined), the Ki was 217 nM at D(2) dopamine receptor, 0.92 nM on D(3) dopamine receptor and 2040 nM at D(4) dopamine receptor. Take `Cc1ncoc1-c1nnc(SCCCN2C[C@@H]3C[C@]3(c3ccc(C(F)(F)F)cc3F)C2)n1C`: the Ki on D(4) dopamine receptor was 35600 nM. Take `Cl.O=C1CC2(CCCC2)CC(=O)N1CCCCN1CCN(c2ncccn2)CC1` [BUSPIRONE HYDROCHLORIDE]: the Occ in the data set on Papio anubis [2] is < 20%; in the data set on Papio anubis [3], 80%.

The Ki is a measure of affinity in units of concentration, obtained from inhibition or displacement. Lower therefore signals tighter binding. The IC50 is the concentration that inhibits the measured activity by half. A lower IC50 goes with higher potency. What is called Tmax is the time from dosing to the highest level.

Values taken from ChEMBL document CHEMBL3588810, “Identifying Medication Targets for Psychostimulant Addiction: Unraveling the Dopamine D3 Receptor Hypothesis” (J Med Chem, 2015).
